Assays:
rat eye tissue = experiment: Histopathological study in rat eye tissue (hematoxylin and eosin, TUNEL); format: in vivo, Sprague-Dawley (SD) rats
[1] = Quantification of plasma, tumor and retinal tissue exposure in tumor-bearing rats; format: in vivo, F344 nude rats
Method: After the administration, plasma, the retina, and tumor were collected according to a sampling schedule. The retina or tumor samples were homogenized in phosphate-buffered saline. The plasma and the homogenized samples were analyzed by liquid chromatography-tandem mass spectrometry or high-performance liquid chromatography. The pharmacokinetics of the compound 1 were calculated by use of the non-compartmental analysis method (Methods Mol Biol 2012; 929: 377-89).

[2] = system: progressive or unresectable GIST; details: group given regorafenib, third-line treatment of progressive or unresectable GIST; cited from earlier work
solid cancer patients [3] = experiment: Phase I study in solid cancer patients: tumor response by RECIST Guideline Version 1.1; format: in vivo, human
Method: (§1) Purpose: This study was conducted for the purpose of determining a maximum tolerated dose (MTD) and estimating a recommended dose (RD) and an administration method when compound 1 was administered with one cycle set to 21 days targeting solid cancer patients, and of evaluating safety and observing an antitumor effect when the compound 1 was administered with one cycle set to 21 days targeting the patients, for example.
(§2) Method: The compound 1 was repeatedly administered between meals once a day in Step 1, and orally administered between meals every other day in Step 2. In Step 1, the initial dose was set to 4.8 mg/m^2 (level 1), and the dose of the compound 1 at each level was determined depending on a body surface area. The initial dose of Step 2 (level 1 of Step 2) was set to MTD (mg/m^2/day) of Step 1. The study was continued until the disease progressed or an intolerable adverse event occurred.
(§3) After determination of MTD for once-daily administration, administration was performed by once-daily administration, by alternate-day administration (repeated administration at cycles each involving one-day administration and one-day withdrawal period on the next day), or by a schedule involving administration for 5 consecutive days and 2-day withdrawal period, and evaluation was conducted.
An antitumor effect on tumor was determined according to RECIST Guideline Version 1.1 (European Journal of Cancer 45 (2009) 228-247), and tumor shrinkage was evaluated by comprehensive evaluation on target lesions (lesions equal to or larger than a measurable size depending on a slice width in a diagnosis method (MRI, CT, X ray, etc.) measured at the time of enrollment) and non-target lesions (all lesions except for the target lesions).
The overall response of each case was evaluated according to the following criteria, and the best overall response was evaluated after confirmation of duration of the effect.
The best overall response was evaluated according to the following 5 levels. • CR: After reaching CR first, the CR status was maintained in examination performed after a lapse of at least 4 weeks or longer. • PR: After reaching PR first, the PR status was maintained in examination performed after a lapse of at least 4 weeks or longer. • SD: Neither CR nor PR was attained and no PD was confirmed in examination performed after a lapse of at least 6 weeks or longer from the start of administration. • PD: PD of target lesions or non-target lesions was confirmed without satisfying the criterion of CR, PR and SD, or the appearance of a new lesion was confirmed.
Proportion of cases with best overall response of CR and PR in an analyte population.
Proportion of cases with best overall response of CR, PR, Non-CR/non-PD, or SD continued for 12 weeks or longer in an analyte population.
Patients with non-small cell lung cancer, gastrointestinal stromal tumor, thymic cancer, biliary tract cancer, breast cancer, adenoid cystic cancer, pancreatic cancer, stomach cancer, ovary cancer, skin cancer, neuroblastoma, head and neck cancer, esophageal cancer, kidney cancer, colorectal cancer, sarcoma, mesothelioma, or the like entered the test.

solid cancer patients [4] = experiment: Phase I study in solid cancer patients: eye disorder related to treatment (ophthalmologic examination, CTCAE Ver. 4.03); format: in vivo
Method: The initial dose of Step 2 (level 1 of Step 2) was set to MTD (mg/m^2/day) of Step 1. The study was continued until the disease progressed or an intolerable adverse event occurred.
as §3
In this test, ophthalmologic examination was conducted in order to evaluate eye disorder.
The ophthalmologic examination was carried out before enrollment, in the duration of administration, and during follow-up. In the duration of administration, ophthalmologic interview, visual acuity examination (corrected), intraocular pressure examination, fundus examination, slit-lamp microscopy, optical coherence tomography (OCT), and color perception examination were carried out for 21 days±1 day from the start of administration. Observation and examination before enrollment were carried out as immediately before the enrollment as possible. In addition to the determined ophthalmologic examination described above, ophthalmologic examination was appropriately carried out when eye problems were found by regular interview by clinical investigators or by declaration from patients themselves.

solid cancer patients [5] = experiment: Phase I study in solid cancer patients: determination of maximum tolerated dose (MTD); format: in vivo, human; details: for MTD: oral
Method: as §1, §2
The dose (mg/body) to a study subject was calculated as described below. Dose (mg/body)=Dose (mg/m^2)×Body surface area (m^2)
The body surface area (BSA) was calculated to the second decimal place by rounding a value off to two decimal places using the formula of DuBois given below. The dose (mg/body) was calculated to an integer by rounding a value off to the closest whole number, and less than 2 mg was cut off because the minimum tablet dose in this study was 2 mg. BSA=([Body weight (kg)]0.425×[Body height (cm)]0.725)×0.007184

[6] = system: patients with local progressive unresectable or metastatic GIST; experiment: Study in GIST patients: progression-free survival (RECIST Guideline Version 1.1); format: in vivo, human; details: 160 mg/body/day oral, 5 consecutive days and 2-day withdrawal period
Method: (§4) Purpose: In order to evaluate the effectiveness and safety, etc. of compound 1, this study was conducted for the purpose of evaluating the effectiveness and safety, etc. of the compound 1, targeting patients with local progressive unresectable or metastatic GIST who received the administration of imatinib, sunitinib or regorafenib in the past.
(§5) From the results of the study of Example 1, this study was carried out according to a schedule involving administration for 5 consecutive days and 2-day withdrawal period. The daily dose of the compound 1 was 160 mg/body/day for oral administration. One cycle was set to 21 days. The administration of the compound 1 was continued until the end date of the clinical trial or any of predetermined criterion for discontinuation were applicable.
For the evaluation of an antitumor effect, CT scan was carried out before the start of administration, every 3 weeks for subsequent 6 weeks, every 6 weeks for subsequent 3 months, and then every 8 weeks until the end of the test. Progression-free survival (PFS) stipulated by RECIST Guideline Version 1.1 was evaluated.

[7] = system: patients with local progressive unresectable or metastatic GIST; experiment: Study in GIST patients: safety, tolerability and eye disorder; format: in vivo, human; details: 160 mg/body/day oral
Method: as §4, §5
For the evaluation of eye disorder, interview, visual acuity examination (corrected), intraocular pressure measurement, fundus examination, slit-lamp microscopy, optical coherence tomography (OCT), and color perception examination were carried out at the time of a baseline within 14 days before enrollment and at the completion of administration of the study drug.
Interview, visual acuity examination (corrected), intraocular pressure measurement, fundus examination, optical coherence tomography (OCT), slit-lamp microscopy, and color perception examination were further carried out as much as possible every 12 weeks after the start of administration of the study drug and every 24 weeks on week 48 or later (within ±7 days).
In addition to the determined ophthalmologic examination described above, ophthalmologic examination was appropriately carried out when eye problems were found by regular interview by clinical investigators or by declaration from patients themselves.

[8] = Quantification of plasma and retinal tissue exposure after intravenous administration; format: in vivo, F344 nude rats; details: 30 minutes and 6 hours after administration
Method: Method: Compound 1 was administered to tumor-bearing F344 nude rats by intravenous administration. Plasma and the retina were collected 30 minutes and 6 hours after the administration. The retina samples were homogenized in phosphate-buffered saline. The plasma and the homogenized samples were analyzed by liquid chromatography-tandem mass spectrometry or high-performance liquid chromatography. The pharmacokinetics of the compound 1 were calculated by use of the non-compartmental analysis method (Methods Mol Biol 2012; 929: 377-89).

[9] = 10.0 mg/kg/day intravenous three times a week for 2 weeks, eyes collected 24 hours after final dose
[10] = QD Step 1 Dose escalation, Lv. 6 (107.5 mg/m^2) n = 6
[11] = QOD Step 2 Expansion (340 mg/body) n = 6
[12] = administration for consecutive days
[13] = 5 consecutive days and 2-day withdrawal period
[14] = 12 mg/kg/day oral every day for 2 weeks, eyes collected 24 hours after final dose
[15] = rats, administered for consecutive days (Non-Patent Literature 6)
[16] = oral administration, tumor-bearing rats

CCNC(=O)c1noc(-c2cc(C(C)C)c(O)cc2O)c1-c1ccc(CN2CCOCC2)cc1 [NVP-AUY922, reference compound]
histopathological change in the outer nuclear layer of the retina (rat eye tissue; [9]): marked degeneration and disarrangement
number of TUNEL-positive apoptotic cells (rat eye tissue; [9]): considerably increase
presence in the retina 24 hours after administration ([1]; intravenous administration, tumor-bearing rats): detected from the retina even 24 hours after administration

CNC(=O)c1cc(Oc2ccc(NC(=O)Nc3ccc(Cl)c(C(F)(F)F)c3)c(F)c2)ccn1 [regorafenib]
median PFS [2]: 4.8 month

CCc1cc(C(N)=O)ccc1-n1nc(C(C)C)c2c(-n3cnc(-c4cnn(C)c4)c3)ccnc21 [compound 1, 3-Ethyl-4-[3-(1-methylethyl)-4-[4-(1-methyl-1H-pyrazol-4-yl)-1H-imidazol-1-yl]-1H-pyrazolo[3,4-b]pyridin-1-yl]benzamide]
DCR (≥12 weeks), % of patients (solid cancer patients [3]; QD × 5, n = 18): (38.9) %
DCR (≥12 weeks), number of patients (solid cancer patients [3]; QD × 5, n = 18): 7
NE, % of patients (solid cancer patients [3]; QD × 5, n = 18): (5.6) %
NE, number of patients (solid cancer patients [3]; QD × 5, n = 18): 1
PD, % of patients (solid cancer patients [3]; QD × 5, n = 18): (44.4) %
PD, number of patients (solid cancer patients [3]; QD × 5, n = 18): 8
PR, % of patients (solid cancer patients [3]; QD × 5, n = 18): (0.0) %
PR, number of patients (solid cancer patients [3]; QD × 5, n = 18): 0
RR, % of patients (solid cancer patients [3]; QD × 5, n = 18): (0.0) %
RR, number of patients (solid cancer patients [3]; QD × 5, n = 18): 0
DCR (≥12 weeks), % of patients (solid cancer patients [3]; QD, n = 16): (31.3) %
DCR (≥12 weeks), number of patients (solid cancer patients [3]; QD, n = 16): 5
NE, % of patients (solid cancer patients [3]; QD, n = 16): (12.5) %
NE, number of patients (solid cancer patients [3]; QD, n = 16): 2
PD, % of patients (solid cancer patients [3]; QD, n = 16): (31.3) %
PD, number of patients (solid cancer patients [3]; QD, n = 16): 5
PR, % of patients (solid cancer patients [3]; QD, n = 16): (12.5) %
PR, number of patients (solid cancer patients [3]; QD, n = 16): 2
RR, % of patients (solid cancer patients [3]; QD, n = 16): (12.5) %
RR, number of patients (solid cancer patients [3]; QD, n = 16): 2
DCR (≥12 weeks), % of patients (solid cancer patients [3]; QOD, n = 26): (14.4) %
DCR (≥12 weeks), number of patients (solid cancer patients [3]; QOD, n = 26): 4
NE, % of patients (solid cancer patients [3]; QOD, n = 26): (3.8) %
NE, number of patients (solid cancer patients [3]; QOD, n = 26): 1
PD, % of patients (solid cancer patients [3]; QOD, n = 26): (57.7) %
PD, number of patients (solid cancer patients [3]; QOD, n = 26): 15
PR, % of patients (solid cancer patients [3]; QOD, n = 26): (3.8) %
PR, number of patients (solid cancer patients [3]; QOD, n = 26): 1
RR, % of patients (solid cancer patients [3]; QOD, n = 26): (3.8) %
RR, number of patients (solid cancer patients [3]; QOD, n = 26): 1
Eye Disorder, G2 (solid cancer patients [4]; QD Step 1 Dose escalation, Lv. 1 to 5 (4.8-76.8 mg/m^2) n = 7): 1 (14.3) n (%)
Eye Disorder, G2 (solid cancer patients [4]; [10]): 2 (33.3) n (%)
Eye disorder, G1 (solid cancer patients [4]; [10]): 3 (50.0) n (%)
Eye Disorder, ≥G3 (solid cancer patients [4]; QD Step 1 Dose escalation, Lv. 7 (150.5 mg/m^2) n = 3): 2 (66.7) n (%)
Eye disorder, G1 (solid cancer patients [4]; QD × 5 (5-day administration 2-day drug holiday) Step 1 Expansion (160 mg/body) n = 19): 5 (26.3) n (%)
Eye disorder, G1 (solid cancer patients [4]; QOD Step 2 Dose escalation, Lv. 1 to 2 (107.5-150.5 mg/m^2) n = 9): 2 (22.2) n (%)
Eye disorder, G1 (solid cancer patients [4]; QOD Step 2 Dose escalation, Lv. 3 (210.7 mg/m^2) n = 6): 1 (16.7) n (%)
Eye disorder, G1 (solid cancer patients [4]; QOD Step 2 Dose escalation, Lv. 4 (295.0 mg/m^2) n = 5): 1 (16.7) n (%)
Eye Disorder, G2 (solid cancer patients [4]; [11]): 1 (20.0) n (%)
Eye disorder, G1 (solid cancer patients [4]; [11]): 3 (60.0) n (%)
degree of eye disorder at MTD (solid cancer patients [4]; alternate-day administration group): limited to grade 1
degree of eye disorder at MTD (solid cancer patients [4]; group given administration for 5 consecutive days and 2-day withdrawal period): limited to grade 1
Eye Disorder, G2 (solid cancer patients [4]; human, in vivo): 4 (6.6) n (%)
Eye Disorder, ≥G3 (solid cancer patients [4]; human, in vivo): 2 (3.3) n (%)
Eye disorder, G1 (solid cancer patients [4]; human, in vivo): 14 (23.0) n (%)
side effect on vision (solid cancer patients [4]; phase I clinical trial, administration for consecutive days): caused a side effect for vision impairment
MTD converted to the fixed dose (solid cancer patients [5]; [12]): 160 mg/body/day
MTD (solid cancer patients [5]; [12]): 107.5 mg/m^2/day
MTD converted to the fixed dose (solid cancer patients [5]; alternate-day administration): 340 mg/body/day
MTD (solid cancer patients [5]; alternate-day administration): 210 mg/m^2/day
median PFS [6]: 4.4 months
frequency of occurrence of eye disorder [7, 13]: 20%
grade of eye disorder in all the patients [7, 13]: grade 1
tolerability [7, 13]: good tolerability
related adverse events observed ([7]; 5 consecutive days and 2-day withdrawal, reversible by discontinuation or decrease in dose): digestive tract disorder and elevated plasma creatinine levels
elevation of the number of TUNEL-positive apoptotic cells (rat eye tissue; [14]): not observed
histopathological change in the outer nuclear layer of the retina (rat eye tissue; [14]): did not cause any histopathological change
ocular toxicity (rat eye tissue; [15]): without exhibiting ocular toxicity
distribution in tumor, retina and plasma [1, 16]: larger amount in tumor than in the retina and plasma
time to removal from the retina [1, 16]: ≤ 24 h
time to elimination from the rat retina [1, 15]: ≤ 24 h
distribution in retina versus plasma [8]: lower in the retina than in plasma

From patent publication US12414940B2, “Method of treating malignant tumor by azabicyclic compound” (TAIHO PHARMACEUTICAL CO., LTD., priority 2018, dated 2025)
